This is an account of results in patent US7342004B2, “Thioether sulphamate steroids as steroid inhibitors and anti-cancer compounds” (Sterix Ltd., priority 2000, dated 2008).

Test [1] concerns the target CuZnSOD (UniProt P00442). As to the kind of experiment: Superoxide dismutase (SOD) spectrophotometric XTT assay, Protocol 1. It is filed as biochemical.
Method: In this reaction, 3′-{1-[(phenylamino)-carbonyl]-3,4-tetrazolium}-bis(4-methoxy-6-nitro)benzenesulfonic acid hydrate (XTT) is converted to a colourimetric product by the action of superoxide ions (produced by xanthine oxidase (XO) and xanthine). Production of superoxide ions is inhibited by SOD resulting in decreased product. The ability of test compounds to inhibit SOD is measured by their ability to restore production of the coloured product. Reactions were performed in a total volume of 0.1 ml of buffer A (42 mM Na2CO3 (pH 9.4), 0.1 mM xanthine (Sigma), 0.1 mM EDTA, 0.026 mM XTT (Sigma)).
The reaction was incubated at 24° C. for 30 minutes and products determined by measuring absorobance at 470 nm. All determinations were made in duplicate/triplicate.
SOD activity was measured in accordance with Protocol 1.
Initial analyses were performed using test compounds at 100 μM.
For test [2], the system named is STS. As to the kind of experiment: Plate assay, % inhibition. Type of test: biochemical. As to the method: The STS inhibition provided by the compounds was determined in accordance with the placental microsomes assay of Protocol 4 and a plate assay.
Setting [3] is: xanthine oxidase/XTT, 24° C., 30 minutes, read-out: IC 50/μM (+/− SEM) SOD Inhibition.
Where [4] appears, read: read-out: IC 50/μM (+/− SEM) SOD Inhibition, xanthine oxidase/XTT, 24° C., 30 minutes.

Like-named read-outs stand apart in the source and are kept apart here.

As to `CC12CCC3c4cc(Cl)c(O)cc4CCC3C1CCC2=O` (stereo not drawn) [Compound 12, 2-chloroestrone], the IC50 in test [1] (setting [3]) came to 83 µM. The same measure, in the same setting: with `CC12CCC3c4cc(F)c(O)cc4CCC3C1CCC2=O` (stereo not drawn) [Compound 11, 2-fluoroestrone] the figure was 81 µM; with `COc1cc2c(cc1N)CCC1C2CCC2(C)C(=O)CCC12` (stereo not drawn) [Compound 9, 2-methoxy-3-aminoestrone], 79 µM; with `C=CCc1cc2c(cc1O)CCC1C2CCC2(C)C(=O)CCC12` (stereo not drawn) [Compound 15, 2-allylestrone], more than 100 µM. Turning to `CC12CCC3c4cc(S(C)(=O)=O)c(O)cc4CCC3C1CCC2=O` (stereo not drawn) [Compound 19, 2-methylsulfonylestrone], in test [1] (setting [3]), the IC50 is more than 100 µM. As for `CSc1cc2c(cc1O)CCC1C2CC[C@]2(C)CCCC12` (stereo partly drawn) [Compound 28, 2-methylsulfanyl-17-deoxyoestrone], in test [1] (setting [3]), the IC50 is more than 100 µM. Consider `CC12CCC3c4cc(I)c(O)cc4CCC3C1CCC2=O` (stereo not drawn) [Compound 16, 2-iodoestrone], for which the IC50 in test [1] (setting [3]) was more than 100 µM. Consider `C[S+]([O-])c1cc2c(cc1O)CCC1C2CCC2(C)C(=O)CCC12` (stereo not drawn) [Compound 18, 2-methylsulfoxyestrone], for which the IC50 in test [1] (setting [3]) is more than 100 µM.

Regarding `CSc1cc2c(cc1O)CCC1C2CCC2(C)C1CCC2(O)Cc1ccc(C(C)(C)C)cc1` (stereo not drawn) [Compound 31, 17-(4-tert-Butyl-benzyl)-13-methyl-2-methylsulfanyl-7,8,9,11,12,13,14,15,16,17-decahydro-6H-cyclopenta[a]phenanthrene-3,17-diol], in test [2], the “Plate Assay, % inhibition 0.1 μM” value was less than 1%; the “Plate Assay, % inhibition 1 μM” value is less than 1%; the “Plate Assay, % inhibition 10 μM” value was determined as 50%. Take `COc1cc2c(cc1O)CCC1C2CC[C@]2(C)CCCC12` (stereo partly drawn) [Compound 29, 2-methoxy-17-deoxyoestrone]: in test [1] (setting [3]), the IC50 was more than 100 µM. Regarding `CC12CCC3C(=CCc4cc(OS(N)(=O)=O)ccc43)C1CCC2=O` (stereo not drawn) [Compound 27, equilin-3-O-sulphamate], in test [1] (setting [3]), the IC50 was more than 100 µM.

As to `COc1cc2c3c(c(=O)oc2cc1O)CCCCC3` [Compound 14, 3-Hydroxy-2-methoxy-6-oxo-8,9,10,11-tetrahydro-7H-cyclohepta-[c][1]benzopyran], in test [1] (setting [3]), the IC50 stood at 91 µM. Turning to `COc1cc2c(cc1O)CCC1C2CCC2(C)C(O)CCC12` (stereo not drawn) [Compound 4, 2-methoxy-17α-estradiol], the IC50 in test [1] (setting [3]) was 13 µM. As for `COc1cc2c(c([N+](=O)[O-])c1O)CCC1C2CCC2(C)C(=O)CCC12` (stereo not drawn) [Compound 22, 2-methoxy-4-nitroestrone], the IC50 in test [1] (setting [3]) was more than 100 µM.

Turning to `COc1cc2c(cc1O)CCC1C2CCC2(C)C(O)CCC12` (stereo not drawn) [Compound 3, 2-methoxy-17β-estradiol, reference compound], in test [1] (setting [3]), the IC50 stood at 12 µM. Consider `CCOc1cc2c(cc1O)CCC1C2CCC2(C)C(=O)CCC12` (stereo not drawn) [Compound 7, 2-ethoxyestrone], for which the IC50 in test [1] (setting [3]) worked out at 19 µM. On to `COc1cc2c(cc1O)CCC1C2CCC2(C)C(=O)CCC12` (stereo not drawn) [Compound 5, 2-methoxyestrone, reference compound], for which the IC50 in test [1] (setting [3]) was found to be 14 µM. On the same count and under the same terms, with `CCc1cc2c(cc1OS(N)(=O)=O)CCC1C2CCC2(C)C(=O)CCC12` (stereo not drawn) [Compound 26, 2-ethylestrone-3-O-sulphamate] the figure was more than 100 µM; with `CCOc1cc2c(cc1O)CCC1C2CCC2(C)C(O)CCC12` (stereo not drawn) [Compound 2, 2-ethoxyestradiol], 11 µM. Turning to `COc1cc2c(cc1O)CCC1C2CCC2(C)C1CCC2(O)Cc1ccc(C(C)(C)C)cc1` (stereo not drawn) [Compound 23, 2-methoxy-17α-(4-tert-butylbenzyl)oestradiol], the IC50 in test [1] (setting [4]) is more than 100 µM. On to `CCSc1cc2c(cc1O)CCC1C2CC[C@]2(C)C(=O)CCC12` (stereo partly drawn) [Compound 10, 2-ethylsulfanylestrone], for which the IC50 in test [1] (setting [3]) was 79 µM. Moreover, in test [2], the “Plate Assay, % inhibition 0.1 μM” value is reported as less than 1%; the “Plate Assay, % inhibition 1 μM” value is given as less than 4%; the “Plate Assay, % inhibition 10 μM” value worked out at 14%. `CCSc1cc2c(cc1O)CCC1C2CCC2(C)C(O)CCC12` (stereo not drawn) [Compound 6, 2-ethylsulfanylestradiol]: in test [1] (setting [3]), the IC50 worked out at 14 µM. For `CSc1cc2c(cc1O)CCC1C2CC[C@]2(C)C(=O)CCC12` (stereo partly drawn) [Compound 8, 2-methylsulfanylestrone], in test [1] (setting [3]), the IC50 was 21 µM. In test [2], the “Plate Assay, % inhibition 0.1 μM” value is given as less than 1%; the “Plate Assay, % inhibition 1 μM” value came to 1%; the “Plate Assay, % inhibition 10 μM” value is reported as 11%. Consider `COc1cc2c(cc1O)CCC1C2CCC2(C)C1CCC2(O)Cc1ccccc1` (stereo not drawn) [Compound 13, 2-methoxy-17α-benzyl-estradiol], for which the IC50 in test [1] (setting [4]) turned out to be 88 µM. On to `CSc1cc2c(cc1O)CCC1C2CCC2(C)C(O)CCC12` (stereo not drawn) [Compound 1, 2-methylsulfanylestradiol], for which, in test [1] (setting [3]), the IC50 turned out to be 10 µM. The same measure, in the same setting: with `CC12CCC3c4cc(C(F)F)c(O)cc4CCC3C1CCC2=O` (stereo not drawn) [Compound 17, 2-difluoromethylestrone] the figure was more than 100 µM. In the case of `CCc1cc2c(cc1O)CCC1C2CCC2(C)C(=O)CCC12` (stereo not drawn) [Compound 21, 2-ethylestrone], in test [1] (setting [3]), the IC50 is more than 100 µM. In the case of `CC12CCC3c4cc([N+](=O)[O-])c(O)cc4CCC3C1CCC2=O` (stereo not drawn) [Compound 20, 2-nitroestrone], the IC50 in test [1] (setting [3]) was more than 100 µM.
